Literature values in patent US20050277626A1, “Methods and compositions for treatment of nicotine dependence and dementias” (priority 2004, published 2005).

How the values were obtained:
[1] = schizophrenic patients
[2] = 400 mg per day

In the case of `COc1cc2c(cc1OC)C(=O)C(CC1CCN(Cc3ccccc3)CC1)C2` (stereo not shown) [donepazil], the “cognitive effect, blinded placebo controlled study” value [1] is given as “no effect” and the “cognitive effect, open label studies” value [1] is given as “modest cognitive improvements”.
In the case of `COc1ccc2c3c1O[C@H]1C[C@@H](O)C=C[C@@]31CCN(C)C2` [galantamine], the “apoptosis induced by beta-amyloid and thapsigargin” value (neuroblastoma cell lines) is listed as “inhibit apoptosis induced by beta-amyloid and thapsigargin in a concentration dependent manner”.
For `O=C(NCCN1CCOCC1)c1ccc(Cl)cc1` [moclobemide], the “efficacy for smoking cessation” value [2] is listed as “demonstrated efficacy”.
